According to patent US10400008B2, “Modulators of the SRC-kinase activity for preventing or treating metastatic cancer” (Cancer Research Technology Limited, priority 2013, dated 2019):
“And” between values parts separate entries of the source, which are not always exact repeats. Equal values may be shown once.

How the values were obtained:
[1] = tested on: HT1080 cells; assay: BrdU incorporation (DNA synthesis) in HT1080 cells; format: cell-based, human; conditions: 18 h, EGF 100 ng/ml, peptide 1 nM
Method: Androgen challenging of these cells neither induces AR nuclear translocation, nor enhances DNA synthesis while robustly increases cell motility. In A, quiescent HT1080 cells were transfected with 3416 or 3424 ARE-luc constructs with or without hAR expressing plasmid. Details of these procedures have been described in Methods. Cells were left un-stimulated or stimulated for 18 h with 10 nM R1881. The luciferase activity was assayed, normalized using beta-gal as an internal control, and expressed as fold induction. Means and SEM are shown; n represents the number of experiments. […] In B, quiescent HT1080 cells on coverslips were left untreated or treated for 60 min with 10 nM R1881. Cells were analysed by IF for AR (left images) or Hoechst (right images). Images are representative of three independent experiments. […] In C, BrdU incorporation in cells on coverslips was analysed and expressed as in FIG. 2. In D, the number of migrated cells was evaluated and expressed as relative increase. […]
FIG. 3: Inhibition by S1 peptide of AR/Src complex, Src activation and DNA synthesis triggered by EGF in HT1080 cells. […] Lower section in A, lysates were immune-precipitated with anti EGFR Ab and proteins in immune-complexes were detected using antibodies against the indicated proteins. […] After in vivo pulse with BrdU (100 μM; Sigma), BrdU incorporation was analyzed by IF and expressed as % of total nuclei. […]

[2] = target: T1, Src (Homo sapiens, UniProt P12931); assay: Src kinase assay in immune-complexes with enolase as substrate, EGF-stimulated HT1080 cells; format: cell-based; conditions: EGF 100 ng/ml 10 min, peptide 1 nM
T1 construct: lysates were immune-precipitated with the anti-Src MAb and Src activity in immune-complexes was assayed using enolase as a substrate; endogenous in cells; host or cells: HT1080 human fibrosarcoma cells
T1 sequence (P12931 whole entry): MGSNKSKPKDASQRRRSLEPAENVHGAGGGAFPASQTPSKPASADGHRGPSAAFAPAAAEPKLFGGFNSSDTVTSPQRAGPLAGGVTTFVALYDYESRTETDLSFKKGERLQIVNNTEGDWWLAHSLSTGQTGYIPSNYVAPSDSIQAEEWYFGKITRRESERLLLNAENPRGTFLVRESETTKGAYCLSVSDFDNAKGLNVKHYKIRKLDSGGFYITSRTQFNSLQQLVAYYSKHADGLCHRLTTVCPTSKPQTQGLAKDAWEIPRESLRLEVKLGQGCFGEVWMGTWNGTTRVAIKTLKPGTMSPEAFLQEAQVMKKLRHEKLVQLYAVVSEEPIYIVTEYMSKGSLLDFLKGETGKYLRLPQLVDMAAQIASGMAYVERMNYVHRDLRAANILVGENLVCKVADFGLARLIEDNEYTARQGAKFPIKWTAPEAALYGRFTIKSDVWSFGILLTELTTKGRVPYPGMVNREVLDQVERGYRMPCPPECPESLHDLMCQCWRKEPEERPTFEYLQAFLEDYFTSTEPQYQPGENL
Method: (§1) FIG. 3: Inhibition by S1 peptide of AR/Src complex, Src activation and DNA synthesis triggered by EGF in HT1080 cells. Quiescent HT1080 cells were used. The cells were left un-stimulated or stimulated for 10 min with EGF (at 100 ng/ml; Roche) in the absence or presence of S1 or Ss peptide (both at 1 nM). Casodex (at 10 μM) was used for comparison with the S1 peptide. The same concentrations of peptides and Casodex were used throughout the experiments. Upper section in A, the Western blot of HT1080 cell lysates with anti-EGFR antibody is shown. […] Lower section in A, lysates were immune-precipitated with anti EGFR Ab and proteins in immune-complexes were detected using antibodies against the indicated proteins. In B, lysates were immune-precipitated with the anti-Src MAb and Src activity in immune-complexes was assayed using enolase as a substrate. In C, cells on coverslips were left untreated or treated for 18 h with the indicated compounds. After in vivo pulse with BrdU (100 μM; Sigma), BrdU incorporation was analyzed by IF and expressed as % of total nuclei. Mean and SEM are shown. n represents the number of experiments.
(§2) Src tyrosine kinase was immune-precipitated, detected and assayed using enolase as a substrate (15). Src, EGF-R and tubulin were detected from cell lysates using appropriate antibodies (7). AR was immune-precipitated and detected as reported (3). […]

[3] = target: T2, AR/Src complex (Homo sapiens, UniProt P12931); assay: EGFR/AR/Src association by immunoprecipitation in EGF-stimulated HT1080 cells; format: cell-based; conditions: EGF 100 ng/ml 10 min, peptide 1 nM
T2 construct: endogenous in cells; host or cells: HT1080 human fibrosarcoma cells
T2 sequence (P12931 2-536 limits assumed, one chain of several): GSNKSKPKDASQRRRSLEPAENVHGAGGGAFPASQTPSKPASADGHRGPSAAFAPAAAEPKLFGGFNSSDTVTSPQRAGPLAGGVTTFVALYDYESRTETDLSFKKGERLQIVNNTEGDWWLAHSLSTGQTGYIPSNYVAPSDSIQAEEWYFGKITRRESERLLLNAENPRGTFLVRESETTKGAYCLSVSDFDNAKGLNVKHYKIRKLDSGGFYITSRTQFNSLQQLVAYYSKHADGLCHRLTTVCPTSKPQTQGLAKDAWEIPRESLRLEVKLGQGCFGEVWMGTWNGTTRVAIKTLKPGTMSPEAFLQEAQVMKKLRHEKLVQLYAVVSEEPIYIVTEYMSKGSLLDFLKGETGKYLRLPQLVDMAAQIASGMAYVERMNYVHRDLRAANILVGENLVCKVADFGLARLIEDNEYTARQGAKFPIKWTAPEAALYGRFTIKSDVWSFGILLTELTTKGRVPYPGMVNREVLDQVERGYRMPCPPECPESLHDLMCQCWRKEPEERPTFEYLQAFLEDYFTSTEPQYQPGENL
Method: as §1, §2

[4] = tested on: PC-3 cells; assay: PC-3 cell proliferation, WST-1; format: cell-based, human; conditions: 100 pM-1 μM, WST-1 at days 3, 5, 7, 9; statistically significant with all doses above 100 pM
Method: We have studied the effects of Val201 on cell proliferation of the ER positive human prostate cancer cell line PC-3 in vitro and growth and metastatis in vivo in an orthotopic xenograft model. The proliferation effects were studied for 100 pM, 1 nM, 10 nM, 100 nM and 1 μM concentrations of VAL201 by measuring WST-1 values at days 3, 5, 7 and 9. Groups with vehicle and 1 μM gemcitabine as reference compound were included in the study. The xenograft study was performed with 6-7 week-old immunodeficient BALB/c nude mice that were allocated to 6 groups (with n=15/group) according to the body weight, one group receiving vehicle and the others VAL201 at doses 0.04, 0.4, 4, 10 and 20 mg/kg. PC-3 cells in Matrigel were inoculated orthotopically into the prostate. Subcutaneous dosing was started at day 1 and continued daily for 28 days. The mice were weighed twice a week. Orthotopic tumors were measured by calliper and the prostate and the regional lymph nodes were harvested at sacrifice. Metastases in lymph nodes were determined from HE stained paraffin sections.

[5] = tested on: HT1080 cells; assay: Migration in Trans-well filters and wound healing of HT1080 cells; format: cell-based, human; conditions: 6 h, peptide 1 nM
Method: FIG. 4: The S1 peptide inhibits EGF-stimulated migration and MMP-9 secretion in HT1080 cells. Quiescent HT1080 cells were used. In A, cells were left untreated or treated for 6 h with the indicated compounds. MMP-9 release was assayed as described in Methods. In B, cells were allowed to migrate for 6 h in Trans-well filters in the absence or presence of the indicated compounds. Migrated cells were stained and counted as reported in Methods. In A and B, data were expressed as relative increase. Mean and SEM is shown. n represents the number of experiments. In C, cells were wounded and then left unstimulated or stimulated for 6 h with the indicated compounds. Contrast-phase images are representative of 3 different experiments, each performed in duplicate.
BrdU incorporation, migration and wound healing analysis were done as described (3, 11). MMP-9 activity was assayed (12, 13), using the fluorescent AK411 kit (BIOMOL Res. Lab.).

[6] = tested on: plugs of uterine tissue (endometriosis lesions); assay: Dose ranging prevention study: lesion burden, growth and establishment of transplanted uterine tissue plugs; format: in vivo, C57BL6 mice; conditions: for Lesion establishment, single plug (P1-P4, M1, M2): 1 or 0 per plug, individual mouse; for Lesion establishment, single plug (P1-P4, M1, M2) / Lesion burden, Ave / Lesion growth, Ave / Lesion burden, Mean / Lesion establishment, Mean / Lesion growth, Mean / Lesion burden, single plug (P1-P6) / Lesion growth, single plug (P1-P4, M1, M2) / Lesion establishment, Ave: prevention; for Lesion burden, Ave / Lesion growth, Ave: average per mouse; for lesion burden / lesion growth: control 7.18; for Lesion burden, Mean / Lesion establishment, Mean / Lesion growth, Mean: group mean; for Lesion burden, single plug (P1-P6) / Lesion growth, single plug (P1-P4, M1, M2): individual mouse and plug; for Lesion establishment, Ave: per mouse
[7] = 1 ng/mouse s.c. daily, listed as ValiRx1
[8] = 10 ng/mouse s.c. daily, listed as ValiRx1
[9] = 100 ng/mouse s.c. daily, listed as ValiRx1
[10] = first of three dose groups (1 ng, 10 ng, 100 ng daily s.c.)
[11] = second of three dose groups (1 ng, 10 ng, 100 ng daily s.c.)
[12] = third of three dose groups (1 ng, 10 ng, 100 ng daily s.c.)

Substance: Ac-PPPHPHARIK-NH2 [VAL001]
- EGF-triggered DNA synthesis (BrdU incorporation) [1]: inhibits
- EGF stimulation of Src activity [2]: almost completely abolished
- EGF-induced AR/Src association and AR/Src association with EGF-R [3]: abolishes
- PC-3 cell proliferation [4]: dose-dependent inhibition
- EGF-increased motility [5]: inhibited at a similar extent
- Lesion establishment, single plug (P1-P4, M1, M2) [6, 7]: 1 (29×) and 0
- Lesion establishment, single plug (P1-P4, M1, M2) [6, 8]: 1 (29×) and 0
- Lesion establishment, single plug (P1-P4, M1, M2) ([6]; 100 ng/mouse s.c. daily): 1
- Lesion burden, Ave [6, 7]: 6.5 mm^2 and 8.5 mm^2 and 1.1 mm^2 and 1.9 mm^2 and 12.1 mm^2
- Lesion growth, Ave [6, 7]: 6.5 mm^2 and 8.5 mm^2 and 1.3 mm^2 and 1.9 mm^2 and 12.1 mm^2
- Lesion burden, Ave [6, 8]: 2.9 mm^2 and 6.7 mm^2 and 11.3 mm^2 and 3.3 mm^2 and 3.5 mm^2
- Lesion growth, Ave [6, 8]: 2.9 mm^2 and 6.7 mm^2 and 11.3 mm^2 and 3.3 mm^2 and 4.2 mm^2
- Lesion burden, Ave [6, 9]: 11.8 mm^2 and 1.8 mm^2 and 3.2 mm^2 and 3.0 mm^2 and 2.9 mm^2
- Lesion growth, Ave [6, 9]: 11.8 mm^2 and 1.8 mm^2 and 3.2 mm^2 and 3.0 mm^2 and 2.9 mm^2
- lesion growth following treatment ([6]; daily 1 ng, 10 ng or 100 ng s.c., dosed group vs control): significantly reduced
- lesion burden [6, 10]: 6.02 mm^2
- lesion growth [6, 10]: 6.23 mm^2
- Lesion burden, Mean ([6]; 1 ng/mouse s.c. daily): 6.02 mm^2
- Lesion establishment, Mean ([6]; 1 ng/mouse s.c. daily): 96.67%
- Lesion growth, Mean ([6]; 1 ng/mouse s.c. daily): 6.23 mm^2
- Lesion burden, Mean ([6]; 10 ng/mouse s.c. daily): 5.53 mm^2
- Lesion establishment, Mean ([6]; 10 ng/mouse s.c. daily): 96.67%
- Lesion growth, Mean ([6]; 10 ng/mouse s.c. daily): 5.72 mm^2
- Lesion burden, Mean ([6]; 100 ng/mouse s.c. daily): 4.52 mm^2
- Lesion establishment, Mean ([6]; 100 ng/mouse s.c. daily): 100.00%
- Lesion growth, Mean ([6]; 100 ng/mouse s.c. daily): 4.52 mm^2
- Lesion burden, single plug (P1-P6) [6, 7]: 1.1 mm^2 (3×) and 3.1 mm^2 and 2.5 mm^2 and 4.2 mm^2 and 16.7 mm^2 and 15.2 mm^2 and 3.8 mm^2 (2×) and 0.2 mm^2 (3×) and 6.2 mm^2 and 0.5 mm^2 and 9.4 mm^2 and 0.0 mm^2 and 3.5 mm^2 (2×) and 17.0 mm^2 and 11.2 mm^2 and 8.0 mm^2 (2×) and 15.1 mm^2 and 5.7 mm^2 and 10.2 mm^2 and 10.6 mm^2 and 16.6 mm^2 and 1.8 mm^2 and 0.1 mm^2
- Lesion growth, single plug (P1-P4, M1, M2) [6, 7]: 1.131 mm^2 (3×) and 3.142 mm^2 and 2.545 mm^2 and 4.155 mm^2 and 16.74 mm^2 and 15.21 mm^2 and 3.801 mm^2 (2×) and 0.196 mm^2 (3×) and 6.158 mm^2 and 0.503 mm^2 and 9.425 mm^2 and 3.456 mm^2 and 3.464 mm^2 and 16.96 mm^2 and 11.2 mm^2 and 8.042 mm^2 (2×) and 15.1 mm^2 and 5.694 mm^2 and 10.18 mm^2 and 10.56 mm^2 and 16.62 mm^2 and 1.767 mm^2 and 0.126 mm^2
- Lesion burden, single plug (P1-P6) [6, 8]: 1.0 mm^2 (3×) and 3.5 mm^2 (5×) and 10.9 mm^2 and 7.3 mm^2 and 10.0 mm^2 and 4.5 mm^2 (2×) and 12.6 mm^2 and 7.0 mm^2 and 9.6 mm^2 and 3.1 mm^2 (2×) and 1.1 mm^2 and 2.5 mm^2 and 0.2 mm^2 and 6.7 mm^2 and 7.1 mm^2 and 5.4 mm^2 and 21.1 mm^2 and 12.1 mm^2 and 3.0 mm^2 and 0.0 mm^2 and 4.0 mm^2 and 9.7 mm^2
- Lesion growth, single plug (P1-P4, M1, M2) [6, 8]: 0.95 mm^2 (3×) and 3.464 mm^2 (5×) and 10.95 mm^2 and 7.288 mm^2 and 10.02 mm^2 and 4.524 mm^2 (2×) and 12.57 mm^2 and 7.037 mm^2 and 9.621 mm^2 and 3.142 mm^2 (2×) and 1.131 mm^2 and 2.545 mm^2 and 0.196 mm^2 and 6.739 mm^2 and 7.069 mm^2 and 5.372 mm^2 and 21.11 mm^2 and 12.06 mm^2 and 2.969 mm^2 and 3.958 mm^2 and 9.66 mm^2
- Lesion burden, single plug (P1-P6) [6, 9]: 7.0 mm^2 and 18.5 mm^2 and 11.0 mm^2 and 4.5 mm^2 and 2.8 mm^2 (3×) and 2.3 mm^2 (3×) and 2.0 mm^2 (2×) and 3.1 mm^2 and 3.5 mm^2 (3×) and 1.5 mm^2 and 4.9 mm^2 and 8.4 mm^2 and 12.6 mm^2 and 13.2 mm^2 and 0.2 mm^2 and 1.0 mm^2 and 0.3 mm^2 (2×) and 3.8 mm^2 (2×) and 7.5 mm^2 and 2.5 mm^2 and 1.8 mm^2
- Lesion growth, single plug (P1-P4, M1, M2) [6, 9]: 7.037 mm^2 and 18.47 mm^2 and 11 mm^2 and 4.453 mm^2 and 2.827 mm^2 (2×) and 2.27 mm^2 (3×) and 2.011 mm^2 (2×) and 3.142 mm^2 and 3.464 mm^2 (3×) and 1.539 mm^2 and 4.909 mm^2 and 8.357 mm^2 and 12.57 mm^2 and 13.2 mm^2 and 0.196 mm^2 and 0.95 mm^2 and 0.283 mm^2 (2×) and 3.801 mm^2 (2×) and 7.548 mm^2 and 2.545 mm^2 and 2.835 mm^2 and 1.767 mm^2
- Lesion establishment, Ave [6, 7]: 100% (4×) and 83.33%
- Lesion establishment, Ave [6, 8]: 100% (4×) and 83.33%
- Lesion establishment, Ave ([6]; 100 ng/mouse s.c. daily): 100%
- lesion burden [6, 11]: 5.53 mm^2
- lesion growth [6, 11]: 5.72 mm^2
- lesion burden [6, 12]: 4.52 mm^2
- lesion growth [6, 12]: 4.52 mm^2
